Measured values from ChEMBL document CHEMBL1136519, “Indole amide hydroxamic acids as potent inhibitors of histone deacetylases” (Bioorg Med Chem Lett, 2003).

Key:
HT-1080 = test: Antiproliferative activity against HT1080 (human fibrosarcoma) cell line.; type: functional, cell-based
[1] = molecular target: Histone deacetylase (HDAC1 and HDAC2) (Homo sapiens, UniProt Q13547+Q92769); test: Inhibitory activity was tested against histone deacetylase (HDAC).; type: protein assay
MDA-MB-435 = test: cells; type: functional, cell-based; settings: Homo sapiens
Description: Antiproliferative activity against MDA-435 (human breast carcinoma) cell line.

Mus musculus [2] = test: Antitumor activity against HT1080 cell line in mouse xenograft model after orally dosed once every other day at 100 mg/kg; type: functional; settings: HT-1080, route oral
Mus musculus [3] = test: Antitumor activity against HT1080 cell line in mouse xenograft model after orally dosed once every other day at 30 mg/kg; type: functional; settings: HT-1080, route oral

Compound | IC50 (HT-1080) [nM] | IC50 [1] [nM] | IC50 (MDA-MB-435) [nM] | inhibition in vivo at 100 mg/kg (Mus musculus [2]) [%] | inhibition in vivo at 30 mg/kg (Mus musculus [3]) [%]
Cn1c(C(=O)NCCCCCCC(=O)NO)cc2ccccc21 | 840 | 47 | 610 |  | 
O=C(CCCCCCNC(=O)c1cccc2[nH]ccc12)NO |  | 80.3 |  |  | 
O=C(CCCCCCNC(=O)c1c[nH]c2ccccc12)NO |  | 37.5 |  |  | 
COc1cccc2[nH]c(C(=O)NCCCCCCC(=O)NO)cc12 | 120 | 3.1 | 130 |  | 
O=C(CCCCCCNC(=O)c1ccc2cc[nH]c2c1)NO |  | 56.5 |  |  | 
O=C(CCCCCCNC(=O)c1cc2cc(Cl)ccc2o1)NO | 180 | 15 | 190 |  | 
O=C(CCCCCCNC(=O)c1cc2cc(F)ccc2[nH]1)NO | 480 | 5.4 | 250 |  | 
Cc1c(C(=O)NCCCCCCC(=O)NO)oc2ccccc12 |  | 12.5 |  |  | 
O=C(CCCCCCNC(=O)c1ccc2[nH]ccc2c1)NO |  | 31.4 |  |  | 
O=C(CCCCCCNC(=O)c1cn(-c2ccc(F)cc2)c2ccccc12)NO | 990 | 11.8 | 380 |  | 
O=C(CCCCCNC(=O)c1cc2ccccc2[nH]1)NO |  | 12.5 |  |  | 
O=C(CCCCCCNC(=O)c1cc2cc(OC(F)(F)F)ccc2[nH]1)NO | 890 | 16 | 300 |  | 
O=C(CCCCCNC(=O)c1ccc2cc[nH]c2c1)NO |  | 36.4 |  |  | 
O=C(CCCCCCNC(=O)c1cn(-c2ccc(Br)cc2)c2ccccc12)NO | 490 | 18.9 | 340 |  | 
O=C(CCCCCCNC(=O)c1cc2cc(Br)ccc2[nH]1)NO | 480 | 3.5 | 470 |  | 
COc1cccc2cc(C(=O)NCCCCCCC(=O)NO)oc12 | 710 | 17 | 320 |  | 
O=C(CCCCCCNC(=O)c1cc2ccccc2o1)NO | 760 | 29.6 | 490 |  | 
CC1c2ccccc2CC1C(=O)NCCCCCCC(=O)NO (stereo not given) |  | 732 |  |  | 

Compound | IC50 (HT-1080) [nM] | IC50 [1] [nM] | IC50 (MDA-MB-435) [nM] | inhibition in vivo at 100 mg/kg (Mus musculus [2]) [%] | inhibition in vivo at 30 mg/kg (Mus musculus [3]) [%]
O=C(CCCCCCNC(=O)c1ccccn1)NO |  | 1680 |  |  | 
O=C(CCCCCCNC(=O)c1cc2cc(OCc3ccccc3)ccc2[nH]1)NO | 1500 | 13.6 | 800 |  | 
O=C(CCCCCCNC(=O)c1cn(-c2ccccc2)c2ccccc12)NO | 2500 | 3.5 | 760 |  | 
O=C(CCCCCNC(=O)c1cccc2[nH]ccc12)NO |  | 87.6 |  |  | 
O=C(CCCCCCNC(=O)c1ccc[nH]1)NO |  | 524 |  |  | 
COc1ccc2oc(C(=O)NCCCCCCC(=O)NO)cc2c1 | 380 | 15 | 300 |  | 
O=C(CCCCCNC(=O)c1c[nH]c2ccccc12)NO |  | 39.8 |  |  | 
O=C(CCCCCNC(=O)c1ccc2[nH]ccc2c1)NO |  | 17 |  |  | 
O=C(CCCCCCNC(=O)c1cccc2cc[nH]c12)NO |  | 41 |  |  | 
COc1ccc2cc(C(=O)NCCCCCCC(=O)NO)[nH]c2c1 | 340 | 9.9 | 230 |  | 
O=C(CCCCCCNC(=O)c1cn(Cc2ccccc2)c2ccccc12)NO | 1900 | 12 | 850 |  | 
Cn1cc(C(=O)NCCCCCCC(=O)NO)c2ccccc21 | 780 | 56 | 390 |  | 
Cc1ccc2[nH]c(C(=O)NCCCCCCC(=O)NO)cc2c1 | 200 | 6.3 | 170 |  | 
COc1cc(OC)c2cc(C(=O)NCCCCCCC(=O)NO)[nH]c2c1 | 260 | 3.1 | 600 |  | 
COc1ccc2[nH]c(C(=O)NCCCCCCC(=O)NO)cc2c1 | 720 | 6.5 | 1200 |  | 
O=C(CCCCCCNC(=O)c1cc2ccccc2[nH]1)NO |  | 14.6 |  | 39 | 36
O=C(CCCCCNC(=O)c1cccc2cc[nH]c12)NO |  | 37.6 |  |  | 
